# Reference: patent US11412737B2, “Mixtures of beflubutamid or optically enriched forms thereof with a second herbicide” (FMC Corporation, priority 2016, dated 2022)
# Assays:
# [1] = test system: Common lambsquarters (CHEAL); assay: pre-emergence test, weed control; type: in vivo, Chenopodium album; settings: pre-emergent, 28 DAT
# Description: (§1) Test compositions containing the test compounds were diluted with water to provide the appropriate test rate concentrations.
# (§2) For pre-emergence testing, four disposable fiber flats (6 inch by 10 inch) for each rate of application of each herbicide solution were filled with top soil, to which seeds of each species were planted in furrows made by a template pressed on the top of the soil. The furrows were covered with soil after planting the seed and were watered well before application of the test compounds.
# (§3) Fiber flats designated for treatment were placed in a spray chamber having a static platform and a movable sprayer and the height of the spray nozzle was 10.5 inches above the soil level. Once the sprayer was calibrated using water for spray volume of 30 gallons per acre, flats were sprayed with sprayer at a speed to receive a coverage equivalent of 30 gallons per acre. The application rates are those shown in the Tables below for the individual herbicidal solutions and the herbicide compositions of this invention. The pre-emergence flats were immediately placed in the greenhouse and watered lightly after treatment. Thereafter they were regularly watered and fertilized for the duration of the test.
# (§4) The control of weeds was evaluated in each experimental test at 21 for wheat and 28 days after treatment (DAT) for all species. Data were analyzed using Minitab software at 95% confidence interval. The results, shown as an average of the replications, were compared with results observed in untreated control flats in the same tests. Percent control was determined by a method similar to the 0 to 100 rating system disclosed in “Research Methods in Weed Science,” 2nd ed., B. Truelove, Ed.; Southern Weed Science Society; Auburn University, Auburn, Ala., 1977. The rating system is as follows in Table 1.
# Palmer amaranth (AMAPA) = assay: pre-emergence test, weed control; type: in vivo, Amaranthus palmeri; settings: pre-emergent, 28 DAT; BFL at 125 g/ha, DCI at 125 g/ha, combination of both
# Description: as §1, §2, §3, §4
# Annual bluegrass (POAAN) = assay: post-emergence test, weed control; type: in vivo, Poa annua; settings: post-emergent, 28 DAT, height 1-2 cm, rate g ai/ha by row: r7 94, r8 125, r9 188, r10 125, r11 250, r12 94+125, r13 125+125, r14 188+125, r15 94+250, r16 125+250, r17 188+250
# Description: as §1
# (§5) For post-emergence testing, seeds of each species for each rate of application of each herbicide solution were planted in 7.5 cm×7.5 cm plastic pots filled with potting soil. The seeds were germinated and the resulting plants were allowed to grow in a greenhouse until they reached a growth stage, such as height, suitable for testing. Treatments were applied using compressed air in a track spray chamber at 30 gallons/acre (280 L/ha) using a TeeJet 8001E nozzle at 40 psi (2.76 bars). Pots of post-emergent treated plants were returned to the greenhouse and not watered for 24 hours after treatment. Thereafter they were regularly watered and fertilized for the duration of the test.
# as §4
# Barnyardgrass (ECHCG) = assay: post-emergence test, weed control; type: in vivo, Echinochloa crus-galli; settings: post-emergent, 28 DAT
# Description: as §1
# as §5, with “Treatments were applied using compressed air in a track spray chamber at 30 gallons/acre (280 L/ha) using a TeeJet 8001E nozzle at 40 psi (2.76 bars).” left out
# The control of weeds was evaluated in each experimental test at 21 for wheat and 28 days after treatment (DAT) for all species. […] The rating system is as follows in Table 1.
# Green foxtail (SETVI) = assay: post-emergence test, weed control; type: in vivo, Setaria viridis; settings: post-emergent, 28 DAT, BFL at 187.5 g, combination of both
# Description: as §1, §5, §4
# Italian ryegrass (LOLMU) = assay: post-emergence test, weed control; type: in vivo, Lolium perenne. multiflorum; settings: post-emergent, 28 DAT; for control of Italian rygrass (LOLMU): combination of both
# Description: as §1, §5, §4
# Redrice (ORYSA) = assay: post-emergence test, weed control; type: in vivo; settings: post-emergent, 28 DAT; for percentage of weed control, ORYSA: height 8 cm, rate g ai/ha by row: r25 94, r26 125, r27 188, r28 125, r29 250, r30 94+125, r31 125+125, r32 188+125, r33 94+250, r34 125+250, r35 188+250
# Description: as §1, §5, §4
# Shattercane (SOBIA) = assay: post-emergence test, weed control; type: in vivo; settings: post-emergent, 28 DAT, height 8 cm; rate g ai/ha by row: r25 94, r26 125, r27 188, r28 125, r29 250, r30 94+125, r31 125+125, r32 188+125, r33 94+250, r34 125+250, r35 188+250
# Description: as §1, §5, §4
# Wild oat (AVEFA) = assay: post-emergence test, weed control; type: in vivo, Avena fatua; settings: post-emergent, 28 DAT; for percentage of weed control, AVEFA: height 11 cm, rate g ai/ha by row: r25 94, r26 125, r27 188, r28 125, r29 250, r30 94+125, r31 125+125, r32 188+125, r33 94+250, r34 125+250, r35 188+250; for control of wild oats (AVEFA): DCI at 250 g/ha
# Description: as §1, §5, §4
# Silky windgrass (APSEV) = assay: post-emergence test, weed control; type: in vivo; settings: post-emergent, 28 DAT, height 1-1.5 cm, rate g ai/ha by row: r25 94, r26 125, r27 188, r28 125, r29 250, r30 94+125, r31 125+125, r32 188+125, r33 94+250, r34 125+250, r35 188+250
# [2] = BFL at 125 g/ha, DCI at 125 g/ha, combination of both
# [3] = BFL at 187.5 g, PYX at 90 g, combination of both
compound,measurement,setting,value
"CCC(Oc1ccc(F)c(C(F)(F)F)c1)C(=O)NCc1ccccc1 (racemic) [BFL, 2-[4-fluoro-3-(trifluoromethyl)phenoxy]-N-(phenylmethyl)butanamide]",control of lambsquarters (CHEAL),[1]; [2],42%
same,"percentage of weed control, CHEAL","[1]; rate g ai/ha by row: r4 94, r5 50, r6 100, r7 52.5, r8 70, r9 94+52.5, r10 94+70, r11 50+52.5, r12 50+70, r13 100+52.5, r14 100+70",16%
same,control of Palmer amaranth (AMAPA),Palmer amaranth (AMAPA),69%
same,"percentage of weed control, POAAN",Annual bluegrass (POAAN); 94 g ai/ha,0%
same,"percentage of weed control, POAAN",Annual bluegrass (POAAN); 188 g ai/ha,2%
same,"percentage of weed control, Barnyardgrass ECHCG","Barnyardgrass (ECHCG); COC 1%, rate g ai/ha by row: r5 94, r6 125, r7 250, r8 1.25, r9 2.5, r10 5, r11 94+1.25, r13 125+1.25, r15 94+2.5, r17 125+2.5, r19 94+5, r21 125+5",5%
same,control of barnyardgrass (ECHCG),Barnyardgrass (ECHCG); [2],6%
same,control of green foxtail,Green foxtail (SETVI); PTX at 890 g,54%
same,control of green foxtail,Green foxtail (SETVI); PYX at 90 g,54%
same,"percentage of weed control, LOLMU","Italian ryegrass (LOLMU); height 5-6 cm, rate g ai/ha by row: r25 94, r26 125, r27 188, r28 125, r29 250, r30 94+125, r31 125+125, r32 188+125, r33 94+250, r34 125+250, r35 188+250",0%
same,control of Italian rygrass (LOLMU),"Italian ryegrass (LOLMU); BFL at 188 g/ha, DCI at 125 g/ha",0%
same,control of Italian rygrass (LOLMU),"Italian ryegrass (LOLMU); DCI at 250 g/ha, BFL at 125 g/ha",0%
same,"percentage of weed control, ORYSA",Redrice (ORYSA); 94 g ai/ha,46%
same,"percentage of weed control, ORYSA",Redrice (ORYSA); 125 g ai/ha,44%
same,"percentage of weed control, ORYSA",Redrice (ORYSA); 188 g ai/ha,28%
same,control of red rice,Redrice (ORYSA); [3],69%
same,"percentage of weed control, SOBIA",Shattercane (SOBIA),0%
same,"percentage of weed control, AVEFA",Wild oat (AVEFA); 94 g ai/ha,0%
same,"percentage of weed control, AVEFA",Wild oat (AVEFA); 188 g ai/ha,5%
same,control of wild oats (AVEFA),"Wild oat (AVEFA); BFL at 125 g/ha, combination of both",0%
same,control of wild oats,Wild oat (AVEFA); [3],15%
same,control of wild oats (AVEFA),"Wild oat (AVEFA); BFL at 188 g/ha, combination of both",5%
same,"percentage of weed control, APSEV",Silky windgrass (APSEV); 94 g ai/ha,0%
same,"percentage of weed control, APSEV",Silky windgrass (APSEV); 188 g ai/ha,5%
